# Measured values: patent US20050112573A1, “Method of detecting toxic substance” (priority 2001, published 2005)
# System: yeast genes (level of expressed mRNA)
# Assay: DNA chip analysis of expressed mRNA of yeast genes after 2 h culture with a toxic chemical substance
# Type: cell-based, Saccharomyces cerevisiae S288C
# Conditions: for The level of expressed mRNA in the presence of chemical substance/ (ratio to absence of chemical substance): stress protein genes, DNA chip
# Method: Yeast (Saccharomyces cerevtisiae S288C (α SUC2mal mel gap2 CUP1)) were cultured at 25° C. on YPD medium (yeast extract 1%, polypepton 2%, glucose 2%). One of toxic chemical substances was added to the cell at logarithmic growth phase, and the cell was further cultured for two hours. Cell was cultured without any chemical substance in the same condition, and was used as control. Concentrations of the chemical substances were defined to inhibit the growth of the yeast but not lead to death.
# After the completion of cultivation, the culture was centrifuged to collect the cells. To the cells, sodium acetate buffer (50 mM sodium acetate, 10 mM EDTA, 1% SDS) was added, and the mixture was shaken at 65° C. for five minutes, followed by returning to room temperature, and obtaining the supernatant, which procedure was repeated two times. To the supernatant, ½ amount of a solution of phenol/chloroform was added, and the mixture was centrifuged to give a supernatant, which was added with an equal amount of chloroform, and the mixture was centrifuged to give a supernatant. To the supernatant, an equal amount of isopropanol containing 0.3 M sodium acetate was added, and the mixture was allowed to stand at room temperature for 30 minutes, after which the mixture was centrifuged to give a sediment of the whole RNAs. Seventy % ethanol was added to the sediment, and the mixture was again centrifuged to give a sediment, which was then dried and dissolved in water. mRNA was isolated from the whole RNAs as followings. In view of the fact that a poly A chain is attached to the 3′ terminus of mRNA, a polynucleotide having a poly T structure which was immobilized on the surface of latex beads was used to trap the mRNA, and then the mRNA was washed and eluted with spine column (Oligotex-dT30<Super>mRNA Purification Kit, Takara). Reverse transcription of the mRNA was conducted with a reverse transcriptase (Super Script II Reverse Transcriptase; catalogue No. 18064-014, GibcoBRL) using fluorescence-labeled nucleotides to give cDNAs that were introduced with Cy3-dUTP or Cy5-dUTP during the reverse transcription.
# The labeled cDNAs were dissolved in TE buffer (10 mM Tris-HCl/1 mM EDTA, pH8.0), and the solution was dropped on the DNA chip containing the whole genes of yeast (DNA Chip Research Inc. Japan) so that the cDNAs were hybridized on the DNA chip at 65° C. for over 12 hours. The fluoresces intensity of the DNA chip was read with a scanner, and the ratio relative to the fluorescence intensity resulting from the absence of chemical substance was estimated as the following, which is shown in Tables 1 to 9: [formula]
# In the Tables, “Intensity” indicated in the rightmost column is a value of the level of expressed mRNA of each gene in control cells as divided by the average level of the expressions of the whole genes.
compound,measurement,setting,value
"C[S+](C)[O-] [(15), dimethylsulfoxide]","The level of expressed mRNA in the presence of chemical substance/ in its absence, gene YDL078C","yeast gene YDL078C, ratio of DNA chip fluorescence intensity to that without chemical substance",0.5
same,"The level of expressed mRNA in the presence of chemical substance/ (in its absence), gene YDL215C","yeast gene YDL215C, ratio of DNA chip fluorescence intensity to that without chemical substance",1.1
same,The level of expressed mRNA in the presence of chemical substance/The level of expressed mRNA in the absence of chemical substance,yeast gene YDL238C,1.3
same,The level of expressed mRNA in the presence of chemical substance/The level of expressed mRNA in the absence of chemical substance,yeast gene YDR055W,5.7
same,"The level of expressed mRNA in the presence of chemical substance/ (in its absence), gene YDR073W","yeast gene YDR073W, ratio of DNA chip fluorescence intensity to that without chemical substance",0.8
same,"The level of expressed mRNA in the presence of chemical substance/ in its absence, gene YDR079W","yeast gene YDR079W, energy system protein genes, 2 h culture with the chemical, ratio to control without chemical",0.6
same,"The level of expressed mRNA in the presence of chemical substance/ (ratio to absence), gene YDR079W","yeast gene YDR079W, mitochondria-located protein genes, 2 h culture with chemical",0.6
same,The level of expressed mRNA in the presence of chemical substance/The level of expressed mRNA in the absence of chemical substance,yeast gene YDR084C,3.9
same,The level of expressed mRNA in the presence of chemical substance/The level of expressed mRNA in the absence of chemical substance,yeast gene YDR085C,3.1
same,The level of expressed mRNA in the presence of chemical substance/The level of expressed mRNA in the absence of chemical substance,yeast gene YDR104C,1.4
same,The level of expressed mRNA in the presence of chemical substance/The level of expressed mRNA in the absence of chemical substance,yeast gene YDR115W,0.8
same,The level of expressed mRNA in the presence of chemical substance/The level of expressed mRNA in the absence of chemical substance,yeast gene YDR259C,2.9
same,"The level of expressed mRNA in the presence of chemical substance/ (in its absence), gene YDR297W","yeast gene YDR297W, ratio of DNA chip fluorescence intensity to that without chemical substance",1.4
same,The level of expressed mRNA in the presence of chemical substance/The level of expressed mRNA in the absence of chemical substance,yeast gene YDR315C,1.5
same,The level of expressed mRNA in the presence of chemical substance/The level of expressed mRNA in the absence of chemical substance,yeast gene YDR358W,0.9
same,"The level of expressed mRNA in the presence of chemical substance/ (ratio to absence), gene YDR377W","yeast gene YDR377W, mitochondria-located protein genes, 2 h culture with chemical",0.6
same,"The level of expressed mRNA in the presence of chemical substance/ (in its absence), gene YDR387C","yeast gene YDR387C, ratio of DNA chip fluorescence intensity to that without chemical substance",1.4
same,The level of expressed mRNA in the presence of chemical substance/The level of expressed mRNA in the absence of chemical substance,yeast gene YDR388W,2.6
same,The level of expressed mRNA in the presence of chemical substance/The level of expressed mRNA in the absence of chemical substance,yeast gene YDR481C,3.5
same,The level of expressed mRNA in the presence of chemical substance/The level of expressed mRNA in the absence of chemical substance,yeast gene YDR510W,2.2
same,The level of expressed mRNA in the presence of chemical substance/ (ratio to absence of chemical substance),yeast gene YEL039C,0.4
same,The level of expressed mRNA in the presence of chemical substance/The level of expressed mRNA in the absence of chemical substance,yeast gene YEL066W,1.0
same,"The level of expressed mRNA in the presence of chemical substance/ (in its absence), gene YER015W","yeast gene YER015W, ratio of DNA chip fluorescence intensity to that without chemical substance",0.8
same,The level of expressed mRNA in the presence of chemical substance/The level of expressed mRNA in the absence of chemical substance,yeast gene YER039C,1.2
same,The level of expressed mRNA in the presence of chemical substance/ (ratio to absence of chemical substance),yeast gene YER057C,1.7
same,The level of expressed mRNA in the presence of chemical substance/The level of expressed mRNA in the absence of chemical substance,yeast gene YER107C,0.7
same,The level of expressed mRNA in the presence of chemical substance/The level of expressed mRNA in the absence of chemical substance,yeast gene YER130C,1.1
same,The level of expressed mRNA in the presence of chemical substance/The level of expressed mRNA in the absence of chemical substance,yeast gene YFL028C,0.8
same,The level of expressed mRNA in the presence of chemical substance/The level of expressed mRNA in the absence of chemical substance,yeast gene YFL043C,1.1
same,"The level of expressed mRNA in the presence of chemical substance/ (in its absence), gene YGL035C","yeast gene YGL035C, ratio of DNA chip fluorescence intensity to that without chemical substance",1.0
same,"The level of expressed mRNA in the presence of chemical substance/ (in its absence), gene YGL115W","yeast gene YGL115W, ratio of DNA chip fluorescence intensity to that without chemical substance",0.7
same,The level of expressed mRNA in the presence of chemical substance/ (ratio to absence of chemical substance),yeast gene YGL115W,0.7
same,The level of expressed mRNA in the presence of chemical substance/The level of expressed mRNA in the absence of chemical substance,yeast gene YGL158W,2.3
same,"The level of expressed mRNA in the presence of chemical substance/ (ratio to absence), gene YGL187C","yeast gene YGL187C, mitochondria-located protein genes, 2 h culture with chemical",0.3
same,"The level of expressed mRNA in the presence of chemical substance/ (in its absence), gene YGL205W","yeast gene YGL205W, ratio of DNA chip fluorescence intensity to that without chemical substance",2.0
same,The level of expressed mRNA in the presence of chemical substance/The level of expressed mRNA in the absence of chemical substance,yeast gene YGL229C,0.2
same,"The level of expressed mRNA in the presence of chemical substance/ in its absence, gene YGR062C","yeast gene YGR062C, energy system protein genes, 2 h culture with the chemical, ratio to control without chemical",0.5
same,"The level of expressed mRNA in the presence of chemical substance/ (ratio to absence), gene YGR062C","yeast gene YGR062C, mitochondria-located protein genes, 2 h culture with chemical",0.5
same,"The level of expressed mRNA in the presence of chemical substance/ (in its absence), gene YGR096W","yeast gene YGR096W, ratio of DNA chip fluorescence intensity to that without chemical substance",0.9
same,The level of expressed mRNA in the presence of chemical substance/The level of expressed mRNA in the absence of chemical substance,yeast gene YGR136W,2.6
same,The level of expressed mRNA in the presence of chemical substance/The level of expressed mRNA in the absence of chemical substance,yeast gene YGR189C,9.3
same,The level of expressed mRNA in the presence of chemical substance/The level of expressed mRNA in the absence of chemical substance,yeast gene YGR213C,6.5
same,The level of expressed mRNA in the presence of chemical substance/The level of expressed mRNA in the absence of chemical substance,yeast gene YGR257C,1.3
same,"The level of expressed mRNA in the presence of chemical substance/ (in its absence), gene YGR287C","yeast gene YGR287C, ratio of DNA chip fluorescence intensity to that without chemical substance",2.3
same,"The level of expressed mRNA in the presence of chemical substance/ (in its absence), gene YGR288W","yeast gene YGR288W, ratio of DNA chip fluorescence intensity to that without chemical substance",0.8
same,The level of expressed mRNA in the presence of chemical substance/ (ratio to absence of chemical substance),yeast gene YHL028W,0.6
same,The level of expressed mRNA in the presence of chemical substance/ (ratio to absence of chemical substance),yeast gene YHL046C,1.0
same,The level of expressed mRNA in the presence of chemical substance/The level of expressed mRNA in the absence of chemical substance,yeast gene YHR004C,1.2
same,The level of expressed mRNA in the presence of chemical substance/The level of expressed mRNA in the absence of chemical substance,yeast gene YHR071W,3.0
same,The level of expressed mRNA in the presence of chemical substance/The level of expressed mRNA in the absence of chemical substance,yeast gene YHR139C,1.9
same,The level of expressed mRNA in the presence of chemical substance/The level of expressed mRNA in the absence of chemical substance,yeast gene YHR142W,4.8
same,"The level of expressed mRNA in the presence of chemical substance/ (in its absence), gene YHR210C","yeast gene YHR210C, ratio of DNA chip fluorescence intensity to that without chemical substance",0.5
same,"The level of expressed mRNA in the presence of chemical substance/ (in its absence), gene YIL006W","yeast gene YIL006W, ratio of DNA chip fluorescence intensity to that without chemical substance",1.5
same,The level of expressed mRNA in the presence of chemical substance/ (ratio to absence of chemical substance),yeast gene YIL011W,0.9
same,The level of expressed mRNA in the presence of chemical substance/The level of expressed mRNA in the absence of chemical substance,yeast gene YIL123W,4.8
same,The level of expressed mRNA in the presence of chemical substance/The level of expressed mRNA in the absence of chemical substance,yeast gene YIL140W,3.3
same,"The level of expressed mRNA in the presence of chemical substance/ (in its absence), gene YJL070C","yeast gene YJL070C, ratio of DNA chip fluorescence intensity to that without chemical substance",3.5
